From PMC6081452, “Downstream Products are Potent Inhibitors of the Heparan Sulfate 2-O-Sulfotransferase” (Scientific Reports, 2018)
Entries after “also recorded” stand apart in the source; their conditions may differ.

Experiments:
[1] = molecular target: T1, glyc-HS2ST (glycosylated human HS2ST), WT (Homo sapiens, UniProt Q7LGA3); test: BLI equilibrium binding, glyc-HS2ST WT; conditions: BLI saturation binding curves, biotin-PEG4-linked hexasaccharide immobilised on sensor, n = 3, ± standard error of fit, 25 °C, PBS pH 7.8
T1 construct: the human HS2ST catalytic domain region comprising of 328 amino acid residues; His8 (N, cleaved yes); AviTag (N, cleaved yes); superfolder GFP (N, cleaved yes); made in house; host or cells: HEK293-F (transient transfection, secreted)
T1 sequence (Q7LGA3 29-356 limits assumed): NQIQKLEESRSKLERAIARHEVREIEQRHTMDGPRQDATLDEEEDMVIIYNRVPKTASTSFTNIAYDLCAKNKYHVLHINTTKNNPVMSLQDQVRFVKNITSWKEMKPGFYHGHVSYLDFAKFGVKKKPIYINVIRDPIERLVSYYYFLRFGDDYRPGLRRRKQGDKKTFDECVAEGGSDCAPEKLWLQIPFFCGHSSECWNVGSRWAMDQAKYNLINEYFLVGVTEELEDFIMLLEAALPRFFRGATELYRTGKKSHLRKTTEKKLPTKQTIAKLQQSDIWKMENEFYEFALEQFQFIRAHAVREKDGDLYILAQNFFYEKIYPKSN
Source text: HS-protein binding studies often utilize biologically-derived oligosaccharides of heterogeneous length and sulfation[34],[35]; however, the synthesis of oligosaccharides with defined length and specific sulfation patterns has recently become possible. We employed biolayer interferometry (BLI) to determine equilibrium surface binding constants (KD) for HS2ST with synthetic HS hexasaccharides (Fig. 1 and Supplementary Table 1). The HS compounds were attached to the BLI biosensor surface to conserve sample and to ensure a significant signal upon protein binding. The HS compounds contained a biotinylated PEG4 linker at the reducing terminus, enhancing the likelihood of a consistent presentation of the linear glycan on the sensor surface, in contrast to immobilizations via intra-chain modifications. […]
An expression construct was generated encoding the truncated catalytic domain of human HS2ST as an NH2-terminal fusion protein in the pGEn2 expression vector essentially as described in prior studies. […] The recombinant human HS2ST was expressed as a soluble secreted protein by transient transfection of suspension culture HEK293-F cells (FreeStyle^TM 293-Fcells, Thermo Fisher Scientific, Waltham MA) maintained at 0.5–3.0 × 10^6 cells/ml in a humidified CO2 platform shaker incubator at 37 °C with 55% humidity. […]

[2] = molecular target: T2, non-glyc-HS2ST (non-glycosylated chicken HS2ST), WT (Gallus gallus, UniProt Q76KB1); test: BLI equilibrium binding, non-glyc-HS2ST WT; conditions: BLI saturation binding curves, biotin-PEG4-linked hexasaccharide on sensor, n = 3, ± standard error of fit; — = response too weak to fit
T2 construct: made in house; host or cells: E. coli Origami B (DE3)
T2 sequence (Q76KB1 69-356 limits assumed): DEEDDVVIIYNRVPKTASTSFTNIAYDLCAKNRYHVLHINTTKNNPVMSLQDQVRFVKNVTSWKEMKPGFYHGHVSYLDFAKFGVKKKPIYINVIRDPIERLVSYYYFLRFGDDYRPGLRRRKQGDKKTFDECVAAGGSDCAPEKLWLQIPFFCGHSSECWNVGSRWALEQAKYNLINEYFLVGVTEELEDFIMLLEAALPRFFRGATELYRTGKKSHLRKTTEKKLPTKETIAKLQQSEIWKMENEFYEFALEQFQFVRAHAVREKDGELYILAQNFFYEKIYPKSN
Source text: HS-protein binding studies often utilize biologically-derived oligosaccharides of heterogeneous length and sulfation[34],[35]; however, the synthesis of oligosaccharides with defined length and specific sulfation patterns has recently become possible. We employed biolayer interferometry (BLI) to determine equilibrium surface binding constants (KD) for HS2ST with synthetic HS hexasaccharides (Fig. 1 and Supplementary Table 1). The HS compounds were attached to the BLI biosensor surface to conserve sample and to ensure a significant signal upon protein binding. The HS compounds contained a biotinylated PEG4 linker at the reducing terminus, enhancing the likelihood of a consistent presentation of the linear glycan on the sensor surface, in contrast to immobilizations via intra-chain modifications.
Binding constants were collected for two isoforms of the enzyme; a glycosylated human variant (glyc-HS2ST) expressed in mammalian cell lines, and a highly homologous (96% identity) non-glycosylated chicken isoform expressed in E. coli (non-glyc-HS2ST). […] Thus, the enhanced ligand affinity seen in HS2ST was unexpected and may relate to the specific position of the glycosylation site (N108)[41].
The chicken HS2ST-Maltose Binding Protein (MBP) fusion protein was expressed and purified according to previous studies. The fusion protein was transformed into E. coli Origami B (DE3) cells, cultured at 37 °C until OD600 reached 0.5, then induced with isopropyl-β-D-thiogalactopyranoside and allowed to grow overnight at 20 °C. Cells were sonicated, followed by a two-step purification procedure. Whole-cell supernatant was passed through an amylose column with Tris buffer (25 mM Tris, 500 mM NaCl, pH 7.5). An elution buffer consisted of Tris Buffer with 40 mM Maltose. The amylose column eluent was concentrated and loaded on a Superdex 200 Increase 10/300 GL with PBS buffer (10 mM sodium phosphate, 150 mM NaCl, pH 7.8) to separate trimeric protein from aggregate and independent MBP (Supplementary Fig. 4). All reported mutations formed homotrimeric complexes according to the SEC profiles, including the negative control (NC = R189A/R80E/R184E). Protein concentration was assessed via UV at 280 nm (MW of trimer ~210 KDa, extinction coefficient ~119,000 M^−1 cm^−1 according to ExPASy ProtParam webtool[56]). The trimeric protein preparation was adjusted to 5% glycerol and stored at −20 °C until use. Additional non-glyc-HS2ST constructs were created with the Q5® Mutagenesis kit (New England Biolabs Inc.; cat. # E0554S) and sequenced at the Georgia Genomics Facility at the University of Georgia.
The Octet® RED96 system (FortéBio Inc.) was employed to detect the affinity of the enzymes for specific HS targets. Due to the small size of the glycan and the deep HS2ST binding cavity, the glycan and protein were treated as ligand and analyte, respectively. Varyingly sulfated HS fragments conjugated to biotin linkers were purchased from Glycan Therapeutics Inc. with purities greater than 93% according to HPLC (sequences located in Supplementary Table 1). The glycans were immobilized onto streptavidin (SA) labeled biosensors (FortéBio; cat. #18–5019) at 0.5 µg/mL. Experiments were performed at 25 °C in PBS Buffer (10 mM sodium phosphate, 150 mM NaCl, pH 7.8) with a final concentration of 1X Pall Kinetics buffer (FortéBio Inc; cat. #18–1092). Fresh biosensors and protein samples were used for each measurement (no regeneration step). […]

Equilibrium KD, WT glyc-HS2ST [1]: too weak to measure
Substance: GlcNS-GlcA-GlcNS-IdoA-GlcNS-GlcA~ [Compound 1]
Equilibrium KD, WT non-glyc-HS2ST [2]: too weak to measure; also recorded: insufficient for KD determination
